Experimental findings from publication PMC9862597, “Anti-Colorectal Cancer Effects of a Novel Camptothecin Derivative PCC0208037 In Vitro and In Vivo” (Pharmaceuticals, 2022) are described below.

One series deals with LS180 cells. The series is described as follows: MTT cell viability assay, LS180. The format is cell-based. The conditions noted are these: Homo sapiens, LS180, 72 h. Here is the method:
(§1) Cell viability was assessed using the MTT assay, as previously reported. Briefly, colorectal cancer cells (LS180, HCT116, CT-26, and HT-29 cells) were plated onto 96-well plates at 3000 cells per well and incubated overnight. […] Control cells were treated with DMSO at a final concentration of 0.1%. Cells were cultured with the compounds or medium for 72 h. The cells were then treated with MTT. The medium was then decanted, and DMSO was added and shaken until the color reaction was complete. The […] were read using a Molecular Devices SpectraMax M5 (San Jose, CA, USA) at OD570 nm. The half maximal inhibitory concentration (IC50) was calculated.
On the technique in general: Formazan colour is commonly taken as a measure of viable cells.

The conditions of series [1]: 0.25 h and 1 h after single i.v. injection.
Protocol: Then, 0.25 h and 1 h after the injection, the colorectal and tumor tissue were removed, rinsed with saline, and blotted dry.
The subject of the next series is LS180 xenograft tumor. The series is described as follows: Subcutaneous LS180 xenograft model. It is filed as in vivo, nude mice. The conditions noted are these: for tumor inhibition rate (tumor weight): 15 d. How it is done:
To establish xenograft tumor models, RPMI 1640 and Matrigel were mixed at a 1:1 ratio. Colorectal cancer cells (LS180: 5 × 10^6 cells) were added to 0.1 mL of the mixture, and male nude mice were subcutaneously injected with colorectal cancer cells on the right side. […] Tumor volume and animal weight were measured every 3 days and continued until the end of the experiments. All mice were euthanized by cervical dislocation at the end of the experiment, and the xenograft tumors were removed and weighed.
Figure 8 Anti-tumor effect of PCC0208037 in the LS180 xenograft tumor model. (A) Representative tumors removed after the last treatment in each treatment group. (B) Body weight gain curves of mice bearing an LS180 xenograft tumor. (C) Tumor weights in the different groups of mice after 15 d of treatment.

Series [2] can be described thus: Pharmacokinetic study, single intravenous dose. Here is the method: Blood samples were collected at 0.083 h, 0.25 h, 0.5 h, 1 h, 2 h, 4 h, 8 h, and 12 h after administration. Plasma was prepared after centrifugation at 6000× g for 5 min and then stored at −20 °C for further analysis.
Another series concerns HCT116 cells. The series is described as follows: MTT cell viability assay, HCT116. The format is cell-based. The conditions noted are these: Homo sapiens, HCT-116, 72 h. How it is done:
as §1

Series [3] in a line: PCC0208037- and CPT-11-induced toxicity in mice. The conditions noted are these: 50 mg/kg/day i.p. for four days.
The target of another series is T1, recombinant Topo I (Homo sapiens, UniProt P11387).
T1 construct: purchased TopoGEN, Inc (Buena Vista, CO, USA) TG1018
T1 sequence (P11387 1-765): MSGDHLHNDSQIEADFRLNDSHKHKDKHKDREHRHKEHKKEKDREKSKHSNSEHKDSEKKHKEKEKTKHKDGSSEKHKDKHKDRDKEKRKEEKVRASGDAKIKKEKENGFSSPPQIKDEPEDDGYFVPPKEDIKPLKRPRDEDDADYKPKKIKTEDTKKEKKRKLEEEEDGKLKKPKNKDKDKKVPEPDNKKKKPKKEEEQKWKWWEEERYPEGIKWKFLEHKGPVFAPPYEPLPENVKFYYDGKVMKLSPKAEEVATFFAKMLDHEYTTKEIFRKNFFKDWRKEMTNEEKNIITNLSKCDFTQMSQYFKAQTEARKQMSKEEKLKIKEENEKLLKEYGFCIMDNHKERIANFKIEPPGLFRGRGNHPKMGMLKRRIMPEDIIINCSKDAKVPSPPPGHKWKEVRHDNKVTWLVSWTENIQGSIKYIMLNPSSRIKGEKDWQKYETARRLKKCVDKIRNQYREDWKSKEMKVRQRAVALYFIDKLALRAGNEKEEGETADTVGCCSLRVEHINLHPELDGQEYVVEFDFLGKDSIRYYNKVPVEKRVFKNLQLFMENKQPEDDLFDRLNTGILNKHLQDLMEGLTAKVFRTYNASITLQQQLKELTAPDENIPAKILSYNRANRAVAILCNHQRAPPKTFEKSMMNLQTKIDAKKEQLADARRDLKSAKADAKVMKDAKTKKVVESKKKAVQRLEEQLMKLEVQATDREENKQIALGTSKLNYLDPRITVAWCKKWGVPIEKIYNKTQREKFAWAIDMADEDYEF
The series is described as follows: Topoisomerase I activity assay (DNA relaxation). It is filed as biochemical. The conditions noted are these: PCC0208037 100 and 10 nmol/L, SN-38 100 nmol/L, CPT-11 100 nmol/L; 30 min, 37 °C. How it is done: To determine whether PCC0208037 inhibited Topo I activity, a DNA relaxation assay was conducted. In this assay, supercoiled plasmid DNA was relaxed and nicked by recombinant Topo I, while no nicked DNA would be found when the Topo I enzyme was inhibited.
A Topoisomerase I Drug Screening Kit was used to detect the inhibitory activity of PCC0208037 against Topo I in the cell-free system. 1 IU Topo I and 250 ng of supercoiled plasmid DNA were pre-incubated with DMSO, PCC0208037 (100 nmol/L and 10 nmol/L), SN-38(100 nmol/L), or CPT (100 nmol/L) in a reaction buffer with a final volume of 20 μL and incubated for 30 min at 37 °C; then, the reaction was stopped by the addition of 2 ul of 10% SDS. Then, proteinase K was added to 50 ug/mL, incubated for 15 min at 37 °C, and 0.1 vol. of a loading buffer (0.25% bromophenol blue, 50% glycerol) was added. The supercoiled, relaxed, or nicked DNA was separated by 1% agarose gel in a 1 TAE (Tris-Acetate-EDTA) buffer. Ethidium bromide-stained agarose gel was photographed using Gel Doc XR.
Figure 4 Inhibition of Topo I activity by PCC0208037. […] Plasmid DNA was separated by an agarose gel and stained with ethidium bromide.

The mark [4] stands for this setting: BALB/c, mouse, in vivo, iv, 10.65 mg/kg.
Setting [5] is: PCC0208037 in plasma, 10.65 mg/kg PCC0208037 i.v., n = 3.

Broadly, the IC50 is the midpoint of a concentration-inhibition curve. A word on the Cmax: it is the highest concentration seen after dosing. Usually Tmax stands for the time from dosing to the highest level. For orientation: half-life means the time needed for the level to fall by half in the phase considered. A higher half-life goes with slow loss.

In turn, `CCc1c2c(nc3ccc(O)cc13)-c1cc3c(c(=O)n1C2)COC(=O)[C@@]3(CC)OC(=O)Nc1nc(=O)n([C@@H]2O[C@H](C)[C@@H](O)[C@H]2O)cc1F` [PCC0208037] came in with an IC50 with LS180 cells of 220 ± 60 nM. In addition, the “concentration in the colorectal tissue compared with CPT-11” value in series [1] was “significantly lower than CPT-11”. Moreover, the “tumor inhibition rate (tumor weight)” value with LS180 xenograft tumor (5 mg/kg i.v. once every 3 days) was 29.9%. For the same compound, in the series on LS180 xenograft tumor (10 mg/kg i.v. once every 3 days), the “tumor inhibition rate (tumor weight)” value is given as 37.2%. For the same compound, in the series on LS180 xenograft tumor (20 mg/kg i.v. once every 3 days), the “tumor inhibition rate (tumor weight)” value is given as 50.8%. For the same compound, the “effect on body weight of tumor-bearing mice” value in the series on LS180 xenograft tumor (PCC0208037 5, 10, 20 mg/kg, CPT-11 10 mg/kg, i.v. once every 3 days) was “without impacting the normal feeding and body weight gain”. For the same compound, in series [2] (setting [4]), the Cmax was determined as 137 µg/mL, the Tmax was found to be 11.4 ± 4.2 min and the half-life is 70.2 ± 0.9 min. Moreover, in series [2] (setting [5]), the AUCinf is recorded as 68,388.4 ± 17,991.1 H * ng/mL and the AUClast is recorded as 68,292.5 ± 18,078.2 H * ng/mL. In the series with HCT116 cells, this compound returned an IC50 of 2900 ± 610 nM. Also, the “colorectal tissue histomorphological examination (H&E)” value in series [3] (colon after 7 days) was “A mild reduction of goblet cells and a mild infiltration of lymphocytes”. In addition, in series [3] (seven-day observation), the mortality entry was “No animal died”; the “recovery of body weight and food intake decrease” value was “began to recover on the 6th day onwards”. In addition, the “inhibition of Topo I activity (supercoiled plasmid DNA relaxation)” value at recombinant Topo I is “dose-dependently increased the presence of supercoiled DNA”.
